According to US20260085077A1, “HETEROCYCLIC DERIVATIVES AS JANUS KINASE INHIBITORS” (CHIESI FARMACEUTICI S.P.A., priority 2022, published 2026):
pIC50: −log10 of the molar value.

Test system: IL-13 induced pSTAT6 in BEAS-2B human cell line
Experiment: Inhibition of IL-13 induced pSTAT6 in BEAS
Type: cell-based
Settings: IL-13 induced pSTAT6, BEAS-2B cells, ELISA
Procedure: BEAS-2B human cell line was seeded (100.000 cells/well) and incubated for 48 h at 37° C., 5% CO2, 95% humidity. Compounds were added and incubated 30 min followed by IL-13 as trigger. After 30 min incubation, cells were lysed and pSTAT6 determined by Fastscan phospho-stat6 (Tyr641) sandwich ELISA kit (cell signaling). Inhibitors were tested at 11 consecutive […] dilutions starting from 10 μM (10 μM-40 pM) in duplicate. Calculation of IC50 data, curves and QC analysis were made using Excel tools and GraphPadPrism software. QC criteria parameters: Z′≥0.35, Hill Slope range 0.5 to 5, S:B>2.

Row | SMILES | pIC50
1 | CNc1nn(-c2cc3c(cc2OC)NCCO3)c2cc(-c3cnn4cccnc34)ncc12 [Example 55, 1-(6-methoxy-3,4-dihydro-2H-benzo[b][1,4]oxazin-7-yl)-N-methyl-6-(pyrazolo[1,5-a]pyrimidin-3-yl)-1H-pyrazolo[4,3-c]pyridin-3-amine] | 7.30 to 8.30
2 | COC(=O)Nc1nn(-c2cc3c(cc2OC)NCCO3)c2cc(-c3cnn4cccnc34)ncc12 [Example 56, methyl (1-(6-methoxy-3,4-dihydro-2H-benzo[b][1,4]oxazin-7-yl)-6-(pyrazolo[1,5-a]pyrimidin-3-yl)-1H-pyrazolo[4,3-c]pyridin-3-yl)carbamate] | 7.30 to 8.30
3 | COc1cc2c(cc1-n1nc(NC(=O)OCCN(C)C)c3cnc(-c4cnn5cccnc45)cc31)OCCN2 [Example 57, 2-(dimethylamino)ethyl (1-(6-methoxy-3,4-dihydro-2H-benzo[b][1,4]oxazin-7-yl)-6-(pyrazolo[1,5-a]pyrimidin-3-yl)-1H-pyrazolo[4,3-c]pyridin-3-yl)carbamate] | 7.30 to 8.30
4 | COc1cc2c(cc1-n1nc(NC(=O)OCCN3CCOCC3)c3cnc(-c4cnn5cccnc45)cc31)OCCN2 [Example 58, 2-morpholinoethyl (1-(6-methoxy-3,4-dihydro-2H-benzo[b][1,4]oxazin-7-yl)-6-(pyrazolo[1,5-a]pyrimidin-3-yl)-1H-pyrazolo[4,3-c]pyridin-3-yl)carbamate] | 7.30 to 8.30
5 | COc1cc2c(cc1-n1nc(NC(=O)OCCCN3CCN(C)CC3)c3cnc(-c4cnn5cccnc45)cc31)OCCN2 [Example 59, 3-(4-methylpiperazin-1-yl)propyl (1-(6-methoxy-3,4-dihydro-2H-benzo[b][1,4]oxazin-7-yl)-6-(pyrazolo[1,5-a]pyrimidin-3-yl)-1H-pyrazolo[4,3-c]pyridin-3-yl)carbamate] | 7.30 to 8.30
6 | COc1cc2c(cc1-n1nc(NC(=O)OCCCN(C)C)c3cnc(-c4cnn5cccnc45)cc31)OCCN2 [Example 60, 3-(dimethylamino)propyl (1-(6-methoxy-3,4-dihydro-2H-benzo[b][1,4]oxazin-7-yl)-6-(pyrazolo[1,5-a]pyrimidin-3-yl)-1H-pyrazolo[4,3-c]pyridin-3-yl)carbamate] | 7.30 to 8.30
7 | COc1cc2c(cc1-n1nc(NC(=O)OCCCN3CCOCC3)c3cnc(-c4cnn5cccnc45)cc31)OCCN2 [Example 61, 3-morpholinopropyl (1-(6-methoxy-3,4-dihydro-2H-benzo[b][1,4]oxazin-7-yl)-6-(pyrazolo[1,5-a]pyrimidin-3-yl)-1H-pyrazolo[4,3-c]pyridin-3-yl)carbamate] | 7.30 to 8.30
8 | COc1cc2c(cc1-n1nc(NC(=O)OCCN3CCS(=O)(=O)CC3)c3cnc(-c4cnn5cccnc45)cc31)OCCN2 [Example 62, 2-(1,1-dioxidothiomorpholino)ethyl (1-(6-methoxy-3,4-dihydro-2H-benzo[b][1,4]oxazin-7-yl)-6-(pyrazolo[1,5-a]pyrimidin-3-yl)-1H-pyrazolo[4,3-c]pyridin-3-yl)carbamate] | 7.30 to 8.30
9 | COc1cc2c(cc1-n1nc(NC(=O)OCCN3CCN(C)CC3)c3cnc(-c4cnn5cccnc45)cc31)OCCN2 [Example 63, 2-(4-methylpiperazin-1-yl)ethyl (1-(6-methoxy-3,4-dihydro-2H-benzo[b][1,4]oxazin-7-yl)-6-(pyrazolo[1,5-a]pyrimidin-3-yl)-1H-pyrazolo[4,3-c]pyridin-3-yl)carbamate] | 7.30 to 8.30
10 | COc1cc2c(cc1-n1nc(NC(=O)OCCN3CCSCC3)c3cnc(-c4cnn5cccnc45)cc31)OCCN2 [Example 64, 2-thiomorpholinoethyl (1-(6-methoxy-3,4-dihydro-2H-benzo[b][1,4]oxazin-7-yl)-6-(pyrazolo[1,5-a]pyrimidin-3-yl)-1H-pyrazolo[4,3-c]pyridin-3-yl)carbamate] | 7.30 to 8.30
11 | COc1cc2c(cc1-n1nc(NC(=O)OC[C@@H]3CN(C)CCO3)c3cnc(-c4cnn5cccnc45)cc31)OCCN2 [Example 65, (S)-(4-methylmorpholin-2-yl)methyl (1-(6-methoxy-3,4-dihydro-2H-benzo[b][1,4]oxazin-7-yl)-6-(pyrazolo[1,5-a]pyrimidin-3-yl)-1H-pyrazolo[4,3-c]pyridin-3-yl)carbamate] | 7.30 to 8.30
12 | COc1cc2c(cc1-n1nc(NC(=O)OCCN3CCCCC3)c3cnc(-c4cnn5cccnc45)cc31)OCCN2 [Example 66, 2-(piperidin-1-yl)ethyl (1-(6-methoxy-3,4-dihydro-2H-benzo[b][1,4]oxazin-7-yl)-6-(pyrazolo[1,5-a]pyrimidin-3-yl)-1H-pyrazolo[4,3-c]pyridin-3-yl)carbamate] | 7.30 to 8.30
13 | COc1cc2c(cc1-n1nc(NC(=O)OCCSC3CCOC3=O)c3cnc(-c4cnn5cccnc45)cc31)OCCN2 (stereo not shown) [Example 67, 2-((2-oxotetrahydrofuran-3-yl)thio)ethyl (1-(6-methoxy-3,4-dihydro-2H-benzo[b][1,4]oxazin-7-yl)-6-(pyrazolo[1,5-a]pyrimidin-3-yl)-1H-pyrazolo[4,3-c]pyridin-3-yl)carbamate] | 7.30 to 8.30
14 | COc1cc2c(cc1-n1nc(NC(=O)OCCNC3CCOC3=O)c3cnc(-c4cnn5cccnc45)cc31)OCCN2 (stereo not shown) [Example 68, 2-((2-oxotetrahydrofuran-3-yl)amino)ethyl (1-(6-methoxy-3,4-dihydro-2H-benzo[b][1,4]oxazin-7-yl)-6-(pyrazolo[1,5-a]pyrimidin-3-yl)-1H-pyrazolo[4,3-c]pyridin-3-yl)carbamate] | 7.30 to 8.30
15 | COc1cc2c(cc1-n1nc(NC(=O)OCCN(C)C)c3cnc(-c4cnn5cccnc45)cc31)CCCN2 [Example 69, 2-(dimethylamino)ethyl (1-(7-methoxy-1,2,3,4-tetrahydroquinolin-6-yl)-6-(pyrazolo[1,5-a]pyrimidin-3-yl)-1H-pyrazolo[4,3-c]pyridin-3-yl)carbamate] | 7.30 to 8.30
16 | COc1cc2c(cc1-n1nc(NC(=O)NCCCN3CCOCC3)c3cnc(-c4cnn5cccnc45)cc31)OCCN2 [Example 70, 1-(1-(6-methoxy-3,4-dihydro-2H-benzo[b][1,4]oxazin-7-yl)-6-(pyrazolo[1,5-a]pyrimidin-3-yl)-1H-pyrazolo[4,3-c]pyridin-3-yl)-3-(3-morpholinopropyl)urea] | 7.30 to 8.30
17 | COc1cc2c(cc1-n1nc(C)c3cnc(-c4cnn5cccnc45)cc31)C1(CC1)C(=O)N2 [Example 71, 6′-methoxy-5′-(3-methyl-6-(pyrazolo[1,5-a]pyrimidin-3-yl)-1H-pyrazolo[4,3-c]pyridin-1-yl)spiro[cyclopropane-1,3′-indolin]-2′-one] | 7.30 to 8.30
18 | COc1cc2[nH]c(=O)oc2cc1-n1nc(NCCN2CCOCC2)c2cnc(-c3cnn4cccnc34)cc21 [Example 72, 5-methoxy-6-(3-((2-morpholinoethyl)amino)-6-(pyrazolo[1,5-a]pyrimidin-3-yl)-1H-pyrazolo[4,3-c]pyridin-1-yl)benzo[d]oxazol-2(3H)-one] | 6.30 to 7.30
19 | COc1cc2c(cc1-n1nc(C(=O)NCCCN(C)C)c3cnc(-c4cnc5cccnn45)cc31)OCCN2 [Example 73, N-(3-(dimethylamino)propyl)-6-(imidazo[1,2-b]pyridazin-3-yl)-1-(6-methoxy-3,4-dihydro-2H-benzo[b][1,4]oxazin-7-yl)-1H-pyrazolo[4,3-c]pyridine-3-carboxamide] | 7.30 to 8.30
